{"source": "patent US20260364027A1", "about": "“ENHANCER OF CARDIOLIPIN MOLECULAR SPECIES AS MITOCHONDRIAL COMPONENT” (WATANABE OYSTER LABORATORY, CO., LTD., priority 2022, published 2026)", "key": {"mitochondria": {"tested_on": "mitochondria", "conditions": "under oxidative stress conditions; results so far; cited from earlier work"}, "CDS2": {"tested_on": "CDS2", "experiment": "qPCR expression of CL biosynthesis-related gene CDS2 in HK-2 cells under oxidative stress", "assay_type": "cell-based, human", "conditions": "oxidative stress (100 μM BSO) + DHMBA 250 or 500 μM, 24 h, HK-2, β-actin corrected, control = 1", "protocol": "FIG. 5 is an explanatory drawing for describing changes in expression level of CL biosynthesis-related genes of DHMBA under oxidative stress conditions. HK-2 cells were cultured with 100 μM BSO and 250 or 500 μM DHMBA, and then the expression levels of CL biosynthesis-related genes were measured by qPCR. Mean±SD (n=4).\n(§1) Therefore, in the present invention, the analysis of the expression levels of genes related to cardiolipin biosynthesis, remodeling, and degradation in response to oxidative stress stimulation was verified.\n(§2) HK-2 cells were seeded in a 6-well plate at a density of 5.0×10^4 cells/well and cultured for 24 hours.\n(§3) Next, under the same stimulus conditions as described above, 2 mL thereof was added to each well. […] The concentration of the purified RNA was quantified by Nanodrop (Invitrogen). […]\n(§4) The gene expression levels were measured according to a protocol for THUNDERBIRD (registered trademark) SYBR (registered trademark) qPCR Mix (TOYOBO). Measurements were performed using a CFX Connect™ real-time PCR analysis system (BioRad), and analyzed using a 2^−(ΔΔCT) method.\n(§5) The gene expression level of the control group was set at 1 for comparison. The figures are expressed as mean±SD (n=4 for each group). […]\n(§6) The data obtained were expressed as mean±standard deviation (SD), and statistical analysis was performed using JMP Pro 16 (SAS Institute Inc.). […]"}, "[1]": {"conditions": "background, to date; cited from earlier work"}, "[2]": {"tested_on": "antioxidant gene groups (such as HO-1 and NQO1)", "conditions": "background, to date; cited from earlier work"}, "HADHB": {"tested_on": "HADHB", "experiment": "qPCR expression of CL remodeling/degradation-related gene HADHB in HK-2 cells under oxidative stress", "assay_type": "cell-based, human", "conditions": "oxidative stress (100 μM BSO) + DHMBA 250 or 500 μM, 24 h, HK-2, β-actin corrected, control = 1", "protocol": "(§7) FIG. 6 is an explanatory drawing for describing changes in the expression levels of genes related to CL remodeling and degradation of DHMBA under oxidative stress conditions. HK-2 cells were cultured with 100 μM BSO and 250 or 500 μM DHMBA, and then the expression levels of genes related to […] were measured by qPCR. Mean±SD (n=4).\nas §1, §2, §3, §4, §5, §6"}, "PNPLA8": {"tested_on": "PNPLA8", "experiment": "qPCR expression of CL remodeling/degradation-related gene PNPLA8 in HK-2 cells under oxidative stress", "assay_type": "cell-based, human", "conditions": "oxidative stress (100 μM BSO) + DHMBA 250 or 500 μM, 24 h, HK-2, β-actin corrected, control = 1", "protocol": "as §7, §1, §2, §3, §4, §5, §6"}, "Keap1-Nrf2 pathway": {"tested_on": "Keap1-Nrf2 pathway", "conditions": "background, to date; cited from earlier work"}, "[3]": {"tested_on": "human renal proximal tubule cells (HK-2)", "experiment": "Cardiolipin measurement by LC-MS/MS in HK-2 cells under oxidative stress stimulation (molecular species, total content, acyl groups)", "assay_type": "cell-based", "conditions": "oxidative stress (100 μM BSO) + DHMBA 250 or 500 μM", "protocol": "FIG. 2 is an explanatory drawing for describing increase effects of DHMBA on CL molecular species under oxidative stress conditions. HK-2 cells were cultured with 100 μM BSO and 250 or 500 μM DHMBA, and then recovered and CL was measured using LC-MS/MS. Mean±SD (n=4).\nFIG. 3 is an explanatory drawing for describing increase effects of DHMBA on total CL content under oxidative stress conditions. HK-2 cells were cultured with 100 μM BSO and 250 or 500 μM DHMBA, and then recovered and CL was measured using LC-MS/MS. Mean±SD (n=4).\nFIG. 4 is an explanatory drawing for describing CL acyl group modification due to addition of DHMBA under oxidative stress conditions. HK-2 cells were cultured with 100 μM BSO and 250 or 500 μM DHMBA, and then recovered and CL was measured using LC-MS/MS. Mean±SD (n=4).\nHuman renal proximal tubule cells (HK-2) were subcultured in Dulbecco's Modified Eagle's Medium (DMEM, Nacalai Tesque) containing 10% fetal bovine serum and 1% penicillin-streptomycin at 37 °C in a 5% CO2 incubator. The following experiments were conducted using the oxidative stress inducer to confirm the cardiolipin increase effect of DHMBA on the oxidative stress.\nHK-2 cells were seeded in a 6-well plate at a density of 1.0×10^5 cells/well and cultured for 24 hours. The cells were then divided into four groups with different stimulus conditions, and 2 mL thereof was added to each well.\nThe above-described four groups with the different stimulus conditions are as follows.\nControl group (culture medium); oxidative stress group (final concentration 100 μM Oxidative Stress); oxidative stress+DHMBA 250 group (final concentration 100 μM Oxidative Stress+final concentration 250 μM DHMBA); and oxidative stress+DHMBA 500 group (final concentration 100 μM Oxidative Stress+final concentration 500 μM DHMBA).\nAfter 24 hours, the cells were washed twice with phosphate-buffered saline (hereinafter referred to as PBS), and then 1 mL of PBS was added to each well and the cells were recovered using a scraper. In this cell suspension, 100 μL was used for protein quantification by a bicinchoninic acid (BCA) method. The protein concentration was used for correction of the cardiolipin concentration. The remaining cell suspension was centrifuged at 1,200 rpm for 5 minutes, the supernatant was removed, and then the precipitated cells were stored at −80 °C.\nFor the cardiolipin measurement, the total intracellular lipids were extracted in the same way as in the previous reports (Chen Z, et al. Metabolomics, 16: 115, 2020). […]\nas §6"}, "[4]": {"conditions": "background; compared with existing antioxidants; cited from earlier work"}}, "data": [{"smiles": "COc1c(O)cc(CO)cc1O", "note": "[DHMBA, 3,5-dihydroxy-4-methoxy benzyl alcohol]", "values": [{"measurement": "Protective effect on mitochondria", "setting": "mitochondria", "result": "protective effect on mitochondria under oxidative stress conditions"}, {"measurement": "CDS2 gene expression level", "setting": "CDS2", "result": "decreased to the same level as the control group"}, {"measurement": "Radical scavenging ability", "setting": "[1]", "result": "confirmed"}, {"measurement": "Induction of the expression of antioxidant gene groups (such as HO-1 and NQO1)", "setting": "[2]", "result": "confirmed"}, {"measurement": "HADHB gene expression level", "setting": "HADHB", "result": "increased"}, {"measurement": "PNPLA8 gene expression level", "setting": "PNPLA8", "result": "decreased to the same level as the control group"}, {"measurement": "Activation of the Keap1-Nrf2 pathway", "setting": "Keap1-Nrf2 pathway", "result": "confirmed"}, {"measurement": "Change in cardiolipin molecular species", "setting": "[3]; 24 h, HK-2, n=4, vs control group", "result": "almost all the cardiolipin molecular species increased significantly"}, {"measurement": "Change in saturated fatty acid chain FA16:0 of cardiolipin", "setting": "[3]; HK-2, n=4", "result": "decreased"}, {"measurement": "Change in unsaturated fatty acid chain FA18:1 of cardiolipin", "setting": "[3]; HK-2, n=4", "result": "increased"}, {"measurement": "Change in unsaturated fatty acid chain FA18:2 of cardiolipin", "setting": "[3]; HK-2, n=4", "result": "increased"}, {"measurement": "Cytotoxicity", "setting": "[4]", "result": "lower cytotoxicity than existing antioxidants"}]}]}
